Legend:
Dihydrofolate reductase = molecular target: T1, Dihydrofolate reductase (Homo sapiens, UniProt P00374)
T1 sequence (P00374 whole entry): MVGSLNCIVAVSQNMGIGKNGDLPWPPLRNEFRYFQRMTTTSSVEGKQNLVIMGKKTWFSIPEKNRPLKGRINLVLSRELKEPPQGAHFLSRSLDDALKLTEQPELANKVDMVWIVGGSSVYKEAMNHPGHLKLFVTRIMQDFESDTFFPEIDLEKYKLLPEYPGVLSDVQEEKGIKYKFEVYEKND
Description: Compound was evaluated for Dihydrofolate Reductase (DHFR) inhibition

[1] = Compound was evaluated for cell growth inhibition of human (WI-L2) leukemic cells.; type: functional, cell-based; conditions: WIL2

| SMILES | IC50 (Dihydrofolate reductase) [µM] | IC50 [1] [µM] |
| --- | --- | --- |
| Cc1nc(N)c2nc(CN(C)c3ccc(C(=O)NC(CCC(=O)O)C(=O)O)cc3)cnc2n1 (stereo not drawn) | > 20 |  |
| CN(Cc1cnc2ncnc(N)c2n1)c1ccc(C(=O)NC(CCC(=O)O)C(=O)O)cc1 (stereo not drawn) | 6 |  |
| Nc1nc(N)c2nc(CNc3ccc(C(=O)N[C@@H](CCC(=O)O)C(=O)O)cc3)cnc2n1 [AMINOPTERIN] |  | 0.007 |
